Reference: patent publication US20230288411A1, “POLYPEPTIDE, MULTIMER, SOLID PHASE, MEASUREMENT METHOD FOR TEST SUBSTANCE, AND REAGENT KIT” (SYSMEX CORPORATION, priority 2020, published 2023)

Key:
D-biotin-labeled albumin = assay: SPR (Biacore T200) binding evaluation to D-biotin-labeled albumin; set-up: species or system bovine; details: analyte flowed at 30 μL/min up to 100 nM, single cycle method, albumin immobilized on sensor chip
Experimental: (§1) A binding ability of D-streptavidin obtained in Example 1 to D-biotin as a natural form and L-biotin as an optical isomer of D-biotin was evaluated by an intermolecular interaction analyzer (Biacore T200) using SPR as a measurement principle.
An N,N-dimethylformamide solution (16.3 μL) containing 10 mg/mL D-biotin-AC5-OSu (manufactured by DOJINDO LABORATORIES) was added to 2.8 mL of 50 mg/mL bovine serum albumin/0.1 M phosphate buffer solution (pH 7.5), and the mixture was stirred, then allowed to stand at 35° C. for 1 hour. Thereafter, desalting was performed by PD-10 (17085101, manufactured by Cytiva) equilibrated with a 0.1 M phosphate buffer (pH 7.5), and D-biotin-labeled albumin was recovered. The number of labeled D-biotin per molecule of albumin by HABA method was 0.4.
Bovine serum albumin was immobilized on flow cells 1 and 3 of a CMS sensor chip (manufactured by Cytiva) of a Biacore T200 system at a target level of 400 RU by an amine coupling method with an amine coupling kit (Cytiva). […]
(§2) Using HBS-EP+(manufactured by Cytiva) as a running buffer, the prepared D-tamavidin (trademark) 2 was flowed into each flow cell at a flow rate of 30 μL/min in the range of 100 pM to 100 nM by a single cycle method, and binding and dissociation to D-biotin or L-biotin was evaluated by Biacore T200 Evaluation Software (manufactured by Cytiva).

L-biotin-labeled albumin = assay: SPR (Biacore T200) binding evaluation to L-biotin-labeled albumin; set-up: species or system bovine; details: analyte flowed at 30 μL/min up to 100 nM, single cycle method, albumin immobilized on sensor chip
Experimental: as §1
Similarly, L-biotin-labeled albumin was prepared using L-biotin-AC5-OSu [see (Amidation of L-biotin) described in Example 3 above].
Bovine serum albumin was immobilized on flow cells 1 and 3 of a CMS sensor chip (manufactured by Cytiva) of a Biacore T200 system at a target level of 400 RU by an amine coupling method with an amine coupling kit (Cytiva). Further, L-biotin-labeled albumin and D-biotin-labeled albumin were immobilized at a target level of 400 RU to flow cells 2 and 4, respectively, similarly by an amine coupling method. Blocking was performed in each flow cell with 1 M ethanolamine solution, pH 8.5 (manufactured by Cytiva). […]
as §2

binding to D-biotin-labeled albumin (SPR sensorgram) (D-biotin-labeled albumin)	binding to L-biotin-labeled albumin (SPR sensorgram) (L-biotin-labeled albumin)	Substance
not substantially bound	very strongly bound	D-streptavidin: tetrameric polypeptide of 13th to 139th amino acids of SEQ ID NO: 1 composed of D-amino acid residues
very strongly bound	–	natural core streptavidin: commercially available tetrameric natural core streptavidin (manufactured by Roche) [reference compound]
